Columns and labels:
VEGFR-2 = VEGFR-2 (Homo sapiens, UniProt P35968); assay: In vitro VEGFR-2 kinase inhibitory assay (VEGFR2 (KDR) Kinase Assay Kit)
Method: In vitro VEGFR‐2 kinase inhibitory assay
for their inhibitory activity against VEGFR‐2. Human BPS bioscience® VEGFR2 (KDR) Ki‐ nase Assay Kit (Enzyme‐Linked Immunosorbent Assay) was utilized in this test. The lu‐ minescent signal from the assay is correlated with the amount of ATP present and is in‐ versely correlated with the amount of kinase activity. The compounds were diluted to 100 μM in 10% DMSO and 5 ml of the diluted solution was added to a 50 ml reaction so that the final concentration of DMSO was 1% in all of reactions. All of the enzymatic reactions were conducted at 30 °C for 40 min. The 50 μl reaction mixture contains 40 μM Tris, pH 7.4, 10 μM MgCl2, 0.1 mg/ml BSA, 0.2 mg/ml Poly (Glu, Tyr) substrate, 10 μM ATP, and VEGFR‐2. After the enzymatic reaction, 50 ml of Kinase‐GloPlus Luminescence kinase as‐ say solution (Promega) was added to each reaction and the plate was incubated for 5 min at room temperature. Luminescence signal was measured using a BioTek Synergy 2 mi‐ croplate reader. The protein kinase assays used to determine IC50 values were performed using a ADP‐GloTM assay kit from Promega, which measures the generation of ADP by the protein kinase. Generation of ADP by the protein kinase reaction leads to an increase in luminescence signal in the presence of the ADP‐GloTM assay kit. The assay was started by incubating the reaction mixture in a 96‐well plate at 30 °C for 30 min. After the 30 mi n incubation period, the assay was terminated by the addition of 25 ml of ADP‐GloTM Re‐ agent (Promega). The 96‐well plate was shaken and then incubated for 40 min at ambient temperature; 50 ml of Kinase detection reagent was added, the 96‐well reaction plate wa s then read using the ADP‐Glo Luminescences Protocol on a GloMax plate reader (Promega: Catalog #E7031). The blank control was set up which included all the assay components, except the addition of appropriate substrates (replaced with equal volume of kinase assay buffer). The corrected activity for each protein kinase target was deter‐ mined by removing the blank control value. IC50 determination for inhibitor against VEGFR‐2 was estimated by generating a graph of log inhibitor vs normalized response with variables.

HepG2 cells = assay: Apoptosis analysis (Annexin V-FITC/PI, flow cytometry); assay type: cell-based, human; details: HepG2, 1.13 µM, 24 h
Method: The HepG2 cells were treated with 17a (1.13 µM for 24 h), and the apoptotic effect was determined using Annexin V-FITC/PI assay. […] In addition, 17a enhanced the necrosis percentage 4-fold more than the control.
The apoptotic ability of compound 17a to the HepG2 cells was assessed using Annexin V-FITC/PI dual staining by flow cytometric analysis, as shown in the Supplementary Materials. […]
4.2.3. Cell cycle analysis […]
4.2.4. Apoptosis analysis
Flow cytometry cell apoptosis analysis was used to investigate the apoptotic effect of the synthesized compounds. HepG2 cells were treated with compound 17a (1.13 μM) for 24 h, collected by trypsin, centrifuged, washed two successive times with PBS, suspended in 500 μL binding buffer, and double stained with 5 μL Annexin V‐FITC and 5 μL PI in the dark at room temperature for 15 min. The stained cells were measured using a BD FACSCalibur™ Flow Cytometer and analyzed using Flowing software. […]

MCF-7 cell line = assay: MTT cytotoxicity assay, MCF-7; assay type: cell-based, human
Method: The cytotoxic activities against breast MCF-7 and liver HepG2 cancer cell lines for all the synthesized compounds 3a,b–17a,b were evaluated by MTT-based cytotoxicity assay. Sunitinib was selected as a reference standard in this study, and the results are presented as IC50 in Table 1.
The anticancer activities of the target compounds 3a,b–17a,b were quantitatively assessed using the MTT protocol against the MCF-7 and HepG2 cell lines, as described in the Supplementary Materials. […]
4.2. Biological investigation
4.2.1. In vitro cytotoxic activity assay
Citation: Abdelgawad, M.A.; Cell Line cells were obtained from the American Type Culture Collection. The cells Hayallah A.M.; Bukhari S.N.A.; were cultured using DMEM (Invitrogen/Life Technologies) supplemented with 10% FBS Musa A.; Elmowafy M.; (Hyclone,), 10 ug/ml of insulin (Sigma), and 1% penicillin‐streptomycin. All of the other Abdel‐Rahman, H.M.; chemicals and reagents were from Sigma or Invitrogen. Plate cells (cells density 1.2 – 1.8 Abd El‐Gaber, M.K. Design, × 10,000 cells/well) in a volume of 100μl complete growth medium + 100 μl of the tested Synthesis, Molecular Modeling, and compound per well in a 96‐well plate for 24 hours before the MTT assay. The tested com‐ Anticancer Evaluation of New pounds were dissolved in DMSO just before the test.
VEGFR‐2 Inhibitors Based on the Indolin‐2‐One Scaffold. 4.2.1.1. Cell culture protocol
Pharmaceuticals 2022, 15, x. The culture medium was removed to a centrifuge tube. The cell layer was briefly https://doi.org/10.3390/xxxxx rinsed with 5 mL of 0.25% (w/v) Trypsin and 3 mL of 0.53 mM EDTA solution to remove Academic Editor(s): Mary J. Meegan all traces of serum which contains Trypsin inhibitor. Next, 2.0 to 3.0 ml of Trypsin EDTA Received: 18 October 2022 solution was added to the flask and cells were observed under an inverted microscope Accepted: 9 November 2022 until the cell layer was dispersed (usually within 5 to 15 minutes). Then, 6.0 to 8.0 mL of Published: 14 November 2022 complete growth medium was added and cells aspirated by gently pipetting. The cell suspension was transferred to the centrifuge tube with the medium and cells from step 1, Publisher’s Note: MDPI stays neu‐and centrifuged at approximately 125 xg for 5 to 10 minutes. The supernatant was dis‐ tral with regard to jurisdictional carded and the cell pellet was suspended in fresh growth medium. Appropriate aliquots claims in published maps and institu‐ of the cell suspension were added to new culture vessels and incubated at 37°C for 24 hrs. tional affiliations. After treatment of cells with the serial concentrations of the compound to be tested, incu‐ bation was carried out for 48 h at 37 °C. The plates were examined under an inverted mi‐ croscope and proceeded for the MTT assay […]
Submitted for possible open access 4.2.1.2. […]
HepG‐2) were used in this test. At first, the cell lines were cultured in RPMI‐1640 medium Pharmaceuticals 2022, 15, x. https://doi.org/10.3390/xxxxx. www.mdpi.com/journal/pharmaceuticals […]
Pharmaceuticals 2022, 15, x FOR PEER REVIEW 2 of 22 with 10% fetal bovine serum. Antibiotics (100 units/ml penicillin and100 μg/ml strepto‐ mycin) were added at 37 °C in a 5% CO2 incubator. The cell lines were seeded in a 96‐well plate at a density of 1.0 x 10^4 cells / well at 37 °C for 48 h under 5% CO2. After incubation, the cells were treated with different concentrations of the synthesized compounds and incubated for 24 h. After 24 h of drug treatment, 20 μl of MTT solution (5mg/ml) was added and incubated for 4 h. 100 μl of dimethyl sulfoxide (DMSO) was added into each well to dissolve the formed purple formazan. The colored solution was measured and recorded at an absorbance of 570 nm using a plate reader (EXL 800, USA). The relative cell viability was calculated in percentage as (A570 of treated samples/A570 of untreated sam‐ ple) X 100. The half maximal inhibitory concentration (IC50) values were presented using […]

Chain of VEGFR-2 (P35968 20-1356): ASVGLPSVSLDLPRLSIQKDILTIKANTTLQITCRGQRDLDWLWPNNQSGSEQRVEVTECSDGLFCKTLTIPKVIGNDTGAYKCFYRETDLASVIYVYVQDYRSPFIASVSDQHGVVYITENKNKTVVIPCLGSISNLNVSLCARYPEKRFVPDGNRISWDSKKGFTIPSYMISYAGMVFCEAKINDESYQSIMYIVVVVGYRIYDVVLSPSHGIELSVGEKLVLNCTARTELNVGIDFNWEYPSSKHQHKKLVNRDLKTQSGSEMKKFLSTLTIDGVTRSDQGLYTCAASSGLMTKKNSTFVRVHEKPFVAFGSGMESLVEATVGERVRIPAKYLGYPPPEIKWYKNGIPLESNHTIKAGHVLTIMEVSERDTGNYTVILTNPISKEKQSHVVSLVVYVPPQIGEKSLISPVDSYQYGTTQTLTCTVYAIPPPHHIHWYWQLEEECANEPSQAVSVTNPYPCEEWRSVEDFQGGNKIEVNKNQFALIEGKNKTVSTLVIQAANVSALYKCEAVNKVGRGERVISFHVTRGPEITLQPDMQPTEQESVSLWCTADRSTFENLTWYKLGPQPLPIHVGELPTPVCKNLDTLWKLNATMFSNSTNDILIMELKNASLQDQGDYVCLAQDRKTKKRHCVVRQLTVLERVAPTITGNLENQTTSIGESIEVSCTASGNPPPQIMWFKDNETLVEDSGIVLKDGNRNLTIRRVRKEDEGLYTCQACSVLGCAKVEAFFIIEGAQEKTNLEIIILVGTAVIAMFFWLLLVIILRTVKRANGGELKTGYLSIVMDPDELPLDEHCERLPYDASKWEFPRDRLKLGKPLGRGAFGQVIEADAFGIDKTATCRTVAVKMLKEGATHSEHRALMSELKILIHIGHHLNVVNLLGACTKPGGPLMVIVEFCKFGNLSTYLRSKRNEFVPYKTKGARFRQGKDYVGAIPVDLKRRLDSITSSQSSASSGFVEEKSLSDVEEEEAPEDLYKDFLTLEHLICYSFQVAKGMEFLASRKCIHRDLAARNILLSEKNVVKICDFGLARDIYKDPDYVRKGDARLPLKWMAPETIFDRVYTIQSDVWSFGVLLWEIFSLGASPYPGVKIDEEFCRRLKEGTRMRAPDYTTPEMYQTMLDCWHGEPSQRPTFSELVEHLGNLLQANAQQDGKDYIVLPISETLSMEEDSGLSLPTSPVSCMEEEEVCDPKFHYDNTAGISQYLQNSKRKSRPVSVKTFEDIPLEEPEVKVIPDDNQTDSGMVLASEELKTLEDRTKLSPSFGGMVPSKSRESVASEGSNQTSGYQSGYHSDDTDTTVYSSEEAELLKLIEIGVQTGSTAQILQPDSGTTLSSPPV

SMILES: O=C1Nc2ccccc2C1=Nc1ccc(C(=O)NNC(=S)Nc2ccccc2)cc1 [Compound 17a, 2-(4-((2-Oxoindolin-3-ylidene)amino)benzoyl)-N-phenylhydrazinecarbothioamide]
- IC50 (VEGFR-2): 78 ± 3 nM
- fold more potent than sunitinib, VEGFR-2 inhibition (VEGFR-2; ratio of IC50 to sunitinib): 1.78 fold
- Apoptosis Early (HepG2 cells): 33.86%
- Apoptosis Late (HepG2 cells): 7.99%
- Apoptosis Total (HepG2 cells): 46.38%
- Necrosis (HepG2 cells): 4.53%
- increase of necrosis percentage versus control (HepG2 cells): 4 fold
- IC50 (MCF-7 cell line; Homo sapiens, MCF7, MTT assay, mean ± SD of three experiments): 1440 ± 110 nM
- fold more potent than sunitinib, MCF-7 (MCF-7 cell line; ratio of IC50 to sunitinib): three-fold
